Test results reported in PMC11062899, “De novo development of small cyclic peptides that are orally bioavailable” (Nature Chemical Biology, 2023).
Several values for one entry are separate records, joined by “and”; a condition that tells them apart may be missing. Equal entries are not always repeated. Where two headings read alike, the source gives them in different places.

Tests used:
human α-thrombin = human α-thrombin (Homo sapiens, UniProt P00734); experiment: Protease inhibition, Ki for human α-thrombin (fluorogenic substrate Z-Gly-Gly-Arg-AMC); assay type: biochemical; details: human alpha thrombin; for Slope normalized to DMSO (proteolytic substrate cleavage over time): replicates R1-R3
Method in brief: (§1)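 Inhibition was measured as AMC fluorescence from 50 μM substrate, monitored for 30 min at 25 °C, relative to a peptide-free control. Human and rat enzymes were present at 2 nM and 3 nM final, respectively, in 50 mM Tris-HCl pH 7.4, 150 mM NaCl, 10 mM MgCl2, 1 mM CaCl2. Ki derives from fitted IC50 via Cheng–Prusoff.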

[1] = Passive artificial membrane permeability (PAMPA)
porcine pepsin = target: T1, porcine pepsin (Sus scrofa, UniProt P00791); experiment: Peptide stability in simulated gastric fluid (SGF); assay type: in vitro ADME
T1 construct: 0.32 g of porcine pepsin (Sigma-Aldrich, P7125) was dissolved under gentle agitation; purchased Sigma-Aldrich P7125
Method in brief: (§2)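 Peptide from a 1 mM DMSO stock was added to fluid pre-warmed at 37 °C. SGF was pH 1.2 NaCl with porcine pepsin (0.32 g per 100 ml), and SIF was pH 6.8 potassium phosphate with porcine pancreatin (1 g per 100 ml). Supernatant peptide was quantified by LC–MS, with residual expressed as T1/T0.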

porcine pancreatin = experiment: Peptide stability in simulated intestinal fluid (SIF); assay type: in vitro ADME; details: after 8 h vs 0 h (TIC)
Method in brief: as §2

[2] = as above; assay type: in vitro ADME, porcine; details: simulated gi fluid; 8 h, 37 °C, pH 6.8; read-out: Proteolytic stability: SIF (8 h) % remaining
Method in brief: as §2

rat α-thrombin = target: T2, rat α-thrombin (Rattus norvegicus, UniProt P18292); experiment: Protease inhibition, Ki for rat α-thrombin (fluorogenic substrate Z-Gly-Gly-Arg-AMC); assay type: biochemical; details: rat alpha thrombin; for Slope normalized to DMSO (proteolytic substrate cleavage over time): replicates R1-R3
T2 construct: rat α-thrombin (Molecular Innovations) were used at final concentrations of 2 nM and 3 nM; purchased Molecular Innovations
Method in brief: as §1

T1 sequence (P00791 60-385): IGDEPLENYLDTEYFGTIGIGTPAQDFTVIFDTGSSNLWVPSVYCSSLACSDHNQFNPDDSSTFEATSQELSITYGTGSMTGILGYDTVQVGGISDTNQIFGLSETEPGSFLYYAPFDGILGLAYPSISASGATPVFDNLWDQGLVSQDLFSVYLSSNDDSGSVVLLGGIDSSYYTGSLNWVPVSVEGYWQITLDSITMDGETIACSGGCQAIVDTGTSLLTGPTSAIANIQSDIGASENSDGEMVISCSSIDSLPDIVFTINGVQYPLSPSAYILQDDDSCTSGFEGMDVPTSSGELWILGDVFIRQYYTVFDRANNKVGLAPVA

O=C1C[C@H]2CCCN2C(=O)[C@H](Cc2ccccc2)NC(=O)[C@@H](NC(=O)c2ccc(Cl)s2)CCSC/C=C/CSCCN1 [compound 34]
Ki (human α-thrombin; average of R1-R3, read-out: Ki Average, human alpha thrombin inhibition): 21 nM | Slope normalized to DMSO (proteolytic substrate cleavage over time) (human α-thrombin; peptide 1.02E-03 uM): 77.8 and 82.6 and 87.7 | Slope normalized to DMSO (proteolytic substrate cleavage over time) (human α-thrombin; peptide 1.27E-04 uM): 85.2 and 86.3 and 97.5 | Slope normalized to DMSO (proteolytic substrate cleavage over time) (human α-thrombin; peptide 1.30E-01 uM): 23.7 and 29.7 and 31.1 | Slope normalized to DMSO (proteolytic substrate cleavage over time) (human α-thrombin; peptide 1.59E-05 uM): 99.4 and 93.2 and 99.6 | Slope normalized to DMSO (proteolytic substrate cleavage over time) (human α-thrombin; peptide 1.63E-02 uM): 62.9 (2×) and 53.3 | Slope normalized to DMSO (proteolytic substrate cleavage over time) (human α-thrombin; peptide 2.03E-03 uM): 91.1 and 82.2 and 86.6 | Slope normalized to DMSO (proteolytic substrate cleavage over time) (human α-thrombin; peptide 2.54E-04 uM): 95.6 and 96.7 and 91.7 | Slope normalized to DMSO (proteolytic substrate cleavage over time) (human α-thrombin; peptide 2.60E-01 uM): 14.6 and 25.5 and 20.4 | Slope normalized to DMSO (proteolytic substrate cleavage over time) (human α-thrombin; peptide 3.18E-05 uM): 103.9 and 99.1 and 101.2 | Slope normalized to DMSO (proteolytic substrate cleavage over time) (human α-thrombin; peptide 3.26E-02 uM): 46.1 and 40.2 and 49.8 | Slope normalized to DMSO (proteolytic substrate cleavage over time) (human α-thrombin; peptide 4.07E-03 uM): 82.6 and 77.6 and 83.2 | Slope normalized to DMSO (proteolytic substrate cleavage over time) (human α-thrombin; peptide 5.09E-04 uM): 88.5 and 86.7 and 91.9 | Slope normalized to DMSO (proteolytic substrate cleavage over time) (human α-thrombin; peptide 5.21E-01 uM): 17.1 and 15.0 | Slope normalized to DMSO (proteolytic substrate cleavage over time) (human α-thrombin; peptide 6.36E-05 uM): 96.5 and 103.5 and 97.9 | Slope normalized to DMSO (proteolytic substrate cleavage over time) (human α-thrombin; peptide 6.51E-02 uM): 35.9 and 37.8 and 41.0 | Slope normalized to DMSO (proteolytic substrate cleavage over time) (human α-thrombin; peptide 7.95E-06 uM): 100.7 and 95.5 and 98.4 | Slope normalized to DMSO (proteolytic substrate cleavage over time) (human α-thrombin; peptide 8.14E-03 uM): 73.2 and 59.3 and 66.6 | IC50 (human α-thrombin; single replicates R1-R3, read-out: IC50, human alpha thrombin inhibition): 30.2 nM and 20 nM and 31.5 nM | Ki (human α-thrombin; single replicates R1-R3, read-out: Ki, human alpha thrombin inhibition): 23.3 nM (2×) and 15.4 nM (2×) and 24.2 nM (2×) | PAMPA permeability: % permeability ([1]; 50 μM, 12–18 h, acceptor concentration relative to equilibrium): 37 ± 1% | Papp at 50 μM ([1]; PAMPA, pH 7.4): 4.57 ×10⁻⁶ cm/s | Permeability% Average ([1]; top well sample vs theoretical equilibrium sample (TIC), average of R1-R3): 37.0% | Permeability% ([1]; top well sample vs theoretical equilibrium sample (TIC), single replicates R1-R3): 36.96% and 38.34% and 35.81% | SGF stability, Residual peptide Average (porcine pepsin; after 8 h vs 0 h (TIC), average of R1-R3): 99.21 | SGF stability, Residual peptide (porcine pepsin; after 8 h vs 0 h (TIC), single replicates R1-R3): 107.50 and 92.24 and 97.90 | remaining at 8 h (porcine pepsin; simulated gi fluid, 8 h, 37 °C, pH 1.2, read-out: Proteolytic stability: SGF (8 h) % remaining): 99 ± 8% | SIF stability, Residual peptide Average (porcine pancreatin; average of R1-R3): 62.79 | SIF stability, Residual peptide (porcine pancreatin; single replicates R1-R3): 66.10 and 55.58 and 66.70 | remaining at 8 h [2]: 63 ± 6% | Ki (rat α-thrombin; average of R1-R3, read-out: Ki Average, rat alpha thrombin inhibition): 6.1 nM | Slope normalized to DMSO (proteolytic substrate cleavage over time) (rat α-thrombin; peptide 1.02E-03 uM): 78.7 and 76.8 and 72.0 | Slope normalized to DMSO (proteolytic substrate cleavage over time) (rat α-thrombin; peptide 1.04E+00 uM): 7.3 and 7.7 and 6.8 | Slope normalized to DMSO (proteolytic substrate cleavage over time) (rat α-thrombin; peptide 1.27E-04 uM): 95.1 and 95.2 and 91.8 | Slope normalized to DMSO (proteolytic substrate cleavage over time) (rat α-thrombin; peptide 1.30E-01 uM): 20.8 and 21.8 and 17.8 | Slope normalized to DMSO (proteolytic substrate cleavage over time) (rat α-thrombin; peptide 1.59E-05 uM): 100.8 and 100.5 and 95.6 | Slope normalized to DMSO (proteolytic substrate cleavage over time) (rat α-thrombin; peptide 1.63E-02 uM): 48.6 and 45.6 and 41.9 | Slope normalized to DMSO (proteolytic substrate cleavage over time) (rat α-thrombin; peptide 1.67E+01 uM): 5.6 and 6.1 and 3.4 | Slope normalized to DMSO (proteolytic substrate cleavage over time) (rat α-thrombin; peptide 2.03E-03 uM): 77.5 and 75.6 and 71.7 | Slope normalized to DMSO (proteolytic substrate cleavage over time) (rat α-thrombin; peptide 2.08E+00 uM): 5.5 and 7.4 and 5.0 | Slope normalized to DMSO (proteolytic substrate cleavage over time) (rat α-thrombin; peptide 2.54E-04 uM): 90.6 and 89.3 and 85.2 | Slope normalized to DMSO (proteolytic substrate cleavage over time) (rat α-thrombin; peptide 2.60E-01 uM): 14.5 and 13.9 and 10.9 | Slope normalized to DMSO (proteolytic substrate cleavage over time) (rat α-thrombin; peptide 3.18E-05 uM): 98.5 and 99.4 and 94.0 | Slope normalized to DMSO (proteolytic substrate cleavage over time) (rat α-thrombin; peptide 3.26E-02 uM): 34.9 (2×) and 30.9 | Slope normalized to DMSO (proteolytic substrate cleavage over time) (rat α-thrombin; peptide 3.33E+01 uM): 5.6 and 5.2 and 4.6 | Slope normalized to DMSO (proteolytic substrate cleavage over time) (rat α-thrombin; peptide 4.07E-03 uM): 74.5 and 73.2 and 65.7 | Slope normalized to DMSO (proteolytic substrate cleavage over time) (rat α-thrombin; peptide 4.17E+00 uM): 6.0 and 6.5 and 4.6 | Slope normalized to DMSO (proteolytic substrate cleavage over time) (rat α-thrombin; peptide 5.09E-04 uM): 86.5 and 86.6 and 79.6 | Slope normalized to DMSO (proteolytic substrate cleavage over time) (rat α-thrombin; peptide 5.21E-01 uM): 8.9 and 10.7 and 8.6 | Slope normalized to DMSO (proteolytic substrate cleavage over time) (rat α-thrombin; peptide 6.36E-05 uM): 95.0 and 93.8 and 92.2 | Slope normalized to DMSO (proteolytic substrate cleavage over time) (rat α-thrombin; peptide 6.51E-02 uM): 29.2 and 28.9 and 23.7 | Slope normalized to DMSO (proteolytic substrate cleavage over time) (rat α-thrombin; peptide 6.67E+01 uM): 6.0 and 6.3 and 4.0 | Slope normalized to DMSO (proteolytic substrate cleavage over time) (rat α-thrombin; peptide 7.95E-06 uM): 103.6 and 102.5 and 98.1 | Slope normalized to DMSO (proteolytic substrate cleavage over time) (rat α-thrombin; peptide 8.14E-03 uM): 62.2 and 57.8 and 53.3 | Slope normalized to DMSO (proteolytic substrate cleavage over time) (rat α-thrombin; peptide 8.33E+00 uM): 4.9 and 6.7 and 5.0 | IC50 (rat α-thrombin; single replicates R1-R3, read-out: IC50, rat alpha thrombin inhibition): 13 nM and 10.8 nM and 9.19 nM | Ki (rat α-thrombin; single replicates R1-R3, read-out: Ki, rat alpha thrombin inhibition): 7.18 nM and 6.01 nM (2×) and 5.09 nM (2×) and 7.19 nM
